For one molecule, Relative activity results are on record in article PMC11854450 (RSC Chemical Biology, 2025).

Assay in all cases: fluorogenic activity assay
Type in all cases: biochemical

The target in one assay is T1, activeCASP10 (Homo sapiens, UniProt Q92851).
T1 sequence (Q92851 220-415): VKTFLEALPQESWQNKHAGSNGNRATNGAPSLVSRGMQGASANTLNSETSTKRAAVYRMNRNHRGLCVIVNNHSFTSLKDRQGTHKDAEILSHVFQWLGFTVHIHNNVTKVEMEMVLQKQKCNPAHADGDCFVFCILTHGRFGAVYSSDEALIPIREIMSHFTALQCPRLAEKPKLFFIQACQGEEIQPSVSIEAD
T1 sequence (Q92851 416-521): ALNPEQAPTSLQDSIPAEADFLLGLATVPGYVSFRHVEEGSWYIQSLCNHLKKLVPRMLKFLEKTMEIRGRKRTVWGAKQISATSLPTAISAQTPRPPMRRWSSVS
The note with it: 333 nM enzyme; 1 h pre-incubation; PBS with 333 mM citrate.

For the next assay, the target named is active caspase-8 (Homo sapiens, UniProt Q14790). The conditions noted are these: 1 h pre-incubation; PBS.
For another assay, the target named is T2, activeCASP-3 (Homo sapiens, UniProt P42574).
T2 sequence (P42574 29-175): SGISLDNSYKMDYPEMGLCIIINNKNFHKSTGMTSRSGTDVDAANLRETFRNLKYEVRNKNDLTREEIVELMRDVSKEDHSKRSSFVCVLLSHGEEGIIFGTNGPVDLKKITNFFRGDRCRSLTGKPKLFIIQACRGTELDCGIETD
T2 sequence (P42574 176-277): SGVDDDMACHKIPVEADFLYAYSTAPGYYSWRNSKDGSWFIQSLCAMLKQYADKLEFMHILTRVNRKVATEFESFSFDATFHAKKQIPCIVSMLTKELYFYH
The conditions noted are these: 0.3 μM enzyme; 1 h pre-incubation; PBS.

Sequence of active caspase-8 (Q14790 217-374): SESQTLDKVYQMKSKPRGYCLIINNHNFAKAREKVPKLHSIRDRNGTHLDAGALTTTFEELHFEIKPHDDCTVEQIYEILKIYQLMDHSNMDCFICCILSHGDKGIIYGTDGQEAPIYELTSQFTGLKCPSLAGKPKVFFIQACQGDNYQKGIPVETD
Sequence of active caspase-8 (Q14790 385-479): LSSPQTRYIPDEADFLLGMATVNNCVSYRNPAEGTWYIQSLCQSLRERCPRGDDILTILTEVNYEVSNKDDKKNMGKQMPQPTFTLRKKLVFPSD

Consider `NS(=O)(=O)C#Cc1ccccc1` [PFTμ, pifithrin-μ], for which the Relative activity result is “we found that PFTμ inhibited both proteoforms to some degree” at activeCASP10; “PFTμ also significantly inhibited active caspase-3 and active caspase-8” on active caspase-8; “PFTμ also significantly inhibited active caspase-3 and active caspase-8” at activeCASP-3.
